Results published in patent publication US20080255206A1, “Rxr Agonists and Antagonists, Alone or in Combination with Ppar Ligands, in the Treatment of Metabolic and Cardiovascular Diseases” (priority 2005, published 2008).

Assays:
[1] = system: myeloperoxidase (MPO) activity; test: Acute inflammation of mouse ears, MPO activity; format: in vivo, C57BL/6 mice; details: 4 d
Protocol: […] mice of the C57BL/6 strain are used. Inflammation is induced on mouse ears with either AtRA, 9-cis RA or TPA by topical application. Inflammation is measured objectively by determination of the activity of myeloperoxidase (MPO) being directly correlated to the infiltration of polymorphonuclear white blood cells and by the determination of mRNA expression of c-jun, a protein implicated in the AP-1 transduction pathway according to known methods, see e.g. P. L. Stanley et al., Skin Pharmacol. 4, 262-271 (1991) (MPO assay), N. Basset-Sequin et al., J. Invest. Dermatol. 94, 418-422 (1990), F. J. Rauscher et al., Cell 52, 471-480 […], P. Sassone-Corn et al., Nature 326, 507-510 (1987), and M. Pfahl, Endocr. Rev. 14, 651-658, 1993, which are incorporated by reference regarding the experimental method.
In the “acute inflammation” test, mice are treated topically (epicutaneously), orally or intraperitoneally, daily for 4 days. In the “semi chronic inflammation” test, mice are treated topically according to the schedules given below. For each experiment, a group of at least 4 mice of both sexes are used in the defined condition, regarding placebo, vehicle control, compound, topical formulation, oral formulation, dosage and concentration. The topical vehicle consists of ethanol/PEG 400/water (3:1:1).
The anti-inflammatory effect of topical RXR antagonist compound 15 is tested by determination of myeloperoxidase activity in % of vehicle treated controls. For induction of inflammation 9-cis RA or TPA are applied topically to the skin, daily for 4 days. The RXR antagonist compound 15 (see Table 1) is administered topically one hour after the application of the inflammation inducing agent. The mice are sacrified 24 hours after the last treatment.

db/db mice = test: Investigation with db/db mice (blood glucose and lipids); format: in vivo, mouse; details: for Glucose Diff. D o − D 12 / HDL-cholesterol Diff. D o − D 12 / Total cholesterol Diff. D o − D 12 / Triglycerides Diff. D o − D 12: change day 0 to day 12; for Glucose D o / HDL-cholesterol D o / Total cholesterol D o / Triglycerides D o: day 0; for Glucose D 12 / HDL-cholesterol D 12 / Total cholesterol D 12 / Triglycerides D 12: day 12; for Glucose D-4 / HDL-cholesterol D-4 / Total cholesterol D-4 / Triglycerides D-4: day −4
Protocol: The following compounds are investigated and compared to placebo (vehicle control).
The mentioned 3 compounds are tested in db/db mice during a time when diabetes is in a rapid developing stage. […] Each dosage group and the vehicle group comprise 7 mice. The suspensions used are prepared with peroxide free arachis oil as vehicle. Blood samples are collected by retro-orbital bleeding at days −4, 0 and 12. The blood levels of glucose, triglycerides, total cholesterol, and HDL-cholesterol are determined.
For evaluation of efficacy, the difference between the values of glucose, triglycerides, total cholesterol and HDL-cholesterol changing from day 0 to day 12 is determined and expressed in %. […] Overall evaluation consists in determining the efficacy of the compounds by calculating the whole extent of the effect expressed in %. […] This value is considered as a valuable indicator for the efficacy of the investigated compounds administered in a tolerated dose.

MMP-1 mRNA = MMP-1 mRNA in synovial fibroblasts (real time PCR); format: cell-based, human
Protocol: Furthermore, it is determined whether this is accompanied by a modulation in the accumulation of the mRNA encoding catabolic enzyme matrix metalloproteinase-1 (MMP-1), responsible for degradation of human cartilage and consequently joint destruction in man. Adherent synovial fluid cells taken from a patient with RA are used after 5 passages in an in vitro assay for cartilage destruction. The cells incubated in flasks coated with 0.1% (0.1 g/100 ml) human cartilage powder are fixed using Matrigel® (BD Biosciences, Becton, Dickinson & Co., Boston, Mass., USA).
This is conducted in the presence or absence of IL-1β (100 pg/ml).

[2] = 30 mg/kg/day group versus vehicle group

SMILES: CCCCOc1c(\C(C)=C/C=C/C(C)=C/C(=O)O)cc(C(C)(C)C)cc1C(C)(C)C [Compound 15, (2E,4E,6Z)-7-[2-butoxy-3,5-bis(1,1-dimethylethyl)phenyl]-3-methyl-2,4,6-octatrienoic acid]
- MPO activity (% vehicle treated mice) ([1]; 9-cis RA 0.05% + test compound 0.05% topical): 236 ± 92 % vehicle treated mice
- MPO activity (% vehicle treated mice) ([1]; TPA 0.005% + test compound 0.05% topical): 163 ± 25 % vehicle treated mice
- MPO activity (% vehicle treated mice) ([1]; TPA 0.005% + test compound 2.5% topical): 142 ± 18 % vehicle treated mice
- Glucose Diff. D o − D 12 (db/db mice; 0.3 mg/kg/day i.p.): +20.8%
- HDL-cholesterol Diff. D o − D 12 (db/db mice; 0.3 mg/kg/day i.p.): −5.0%
- Total cholesterol Diff. D o − D 12 (db/db mice; 0.3 mg/kg/day i.p.): −5.7%
- Triglycerides Diff. D o − D 12 (db/db mice; 0.3 mg/kg/day i.p.): −0.6%
- Glucose D o (db/db mice; 0.3 mg/kg/day i.p.): 226 mg/dL
- HDL-cholesterol D o (db/db mice; 0.3 mg/kg/day i.p.): 3.00 mmol/L
- Total cholesterol D o (db/db mice; 0.3 mg/kg/day i.p.): 4.05 mmol/L
- Triglycerides D o (db/db mice; 0.3 mg/kg/day i.p.): 1.78 mmol/L
- Glucose D 12 (db/db mice; 0.3 mg/kg/day i.p.): 273 mg/dL
- HDL-cholesterol D 12 (db/db mice; 0.3 mg/kg/day i.p.): 2.85 mmol/L
- Total cholesterol D 12 (db/db mice; 0.3 mg/kg/day i.p.): 3.82 mmol/L
- Triglycerides D 12 (db/db mice; 0.3 mg/kg/day i.p.): 1.77 mmol/L
- Glucose D-4 (db/db mice; 0.3 mg/kg/day i.p.): 153 mg/dL
- HDL-cholesterol D-4 (db/db mice; 0.3 mg/kg/day i.p.): 2.43 mmol/L
- Total cholesterol D-4 (db/db mice; 0.3 mg/kg/day i.p.): 4.52 mmol/L
- Triglycerides D-4 (db/db mice; 0.3 mg/kg/day i.p.): 2.28 mmol/L
- Glucose levels (in words) (db/db mice; 3 mg/kg/day): markedly lowers glucose levels
- HDL-cholesterol levels (in words) (db/db mice; 3 mg/kg/day): markedly raised
- Triglyceride levels (in words) (db/db mice; 3 mg/kg/day): markedly decreasing
- Glucose Diff. D o − D 12 (db/db mice; 3.0 mg/kg/day i.p.): +4.1%
- HDL-cholesterol Diff. D o − D 12 (db/db mice; 3.0 mg/kg/day i.p.): +18.4%
- Total cholesterol Diff. D o − D 12 (db/db mice; 3.0 mg/kg/day i.p.): −11.1%
- Triglycerides Diff. D o − D 12 (db/db mice; 3.0 mg/kg/day i.p.): −44.9%
- Glucose D o (db/db mice; 3.0 mg/kg/day i.p.): 270 mg/dL
- HDL-cholesterol D o (db/db mice; 3.0 mg/kg/day i.p.): 2.88 mmol/L
- Total cholesterol D o (db/db mice; 3.0 mg/kg/day i.p.): 3.95 mmol/L
- Triglycerides D o (db/db mice; 3.0 mg/kg/day i.p.): 2.16 mmol/L
- Glucose D 12 (db/db mice; 3.0 mg/kg/day i.p.): 281 mg/dL
- HDL-cholesterol D 12 (db/db mice; 3.0 mg/kg/day i.p.): 3.41 mmol/L
- Total cholesterol D 12 (db/db mice; 3.0 mg/kg/day i.p.): 4.39 mmol/L
- Triglycerides D 12 (db/db mice; 3.0 mg/kg/day i.p.): 1.19 mmol/L
- Glucose D-4 (db/db mice; 3.0 mg/kg/day i.p.): 192 mg/dL
- HDL-cholesterol D-4 (db/db mice; 3.0 mg/kg/day i.p.): 2.47 mmol/L
- Total cholesterol D-4 (db/db mice; 3.0 mg/kg/day i.p.): 4.62 mmol/L
- Triglycerides D-4 (db/db mice; 3.0 mg/kg/day i.p.): 2.15 mmol/L
- Glucose levels (in words) (db/db mice; 30 mg/kg/day): decrease markedly
- HDL-cholesterol levels (in words) (db/db mice; 30 mg/kg/day): markedly increased
- Total cholesterol levels (in words) (db/db mice; 30 mg/kg/day): slightly higher
- Triglyceride levels (in words) (db/db mice; 30 mg/kg/day): very strongly
- Overall extent of the effect on blood levels of Glucose (db/db mice; [2]): −58.0%
- Overall extent of the effect on blood levels of HDL-cholesterol (db/db mice; [2]): +14.2%
- Overall extent of the effect on blood levels of Total cholesterol (db/db mice; [2]): +14.9%
- Overall extent of the effect on blood levels of Triglycerides (db/db mice; [2]): −73.0%
- Glucose Diff. D o − D 12 (db/db mice; 30 mg/kg/day i.p.): −8.8%
- HDL-cholesterol Diff. D o − D 12 (db/db mice; 30 mg/kg/day i.p.): +10.4%
- Total cholesterol Diff. D o − D 12 (db/db mice; 30 mg/kg/day i.p.): +6.1%
- Triglycerides Diff. D o − D 12 (db/db mice; 30 mg/kg/day i.p.): −50.9%
- Glucose D o (db/db mice; 30 mg/kg/day i.p.): 294 mg/dL
- HDL-cholesterol D o (db/db mice; 30 mg/kg/day i.p.): 3.07 mmol/L
- Total cholesterol D o (db/db mice; 30 mg/kg/day i.p.): 4.27 mmol/L
- Triglycerides D o (db/db mice; 30 mg/kg/day i.p.): 2.18 mmol/L
- Glucose D 12 (db/db mice; 30 mg/kg/day i.p.): 268 mg/dL
- HDL-cholesterol D 12 (db/db mice; 30 mg/kg/day i.p.): 3.39 mmol/L
- Total cholesterol D 12 (db/db mice; 30 mg/kg/day i.p.): 4.53 mmol/L
- Triglycerides D 12 (db/db mice; 30 mg/kg/day i.p.): 1.07 mmol/L
- Glucose D-4 (db/db mice; 30 mg/kg/day i.p.): 184 mg/dL
- HDL-cholesterol D-4 (db/db mice; 30 mg/kg/day i.p.): 2.45 mmol/L
- Total cholesterol D-4 (db/db mice; 30 mg/kg/day i.p.): 3.98 mmol/L
- Triglycerides D-4 (db/db mice; 30 mg/kg/day i.p.): 1.85 mmol/L
- MMP-1 mRNA, fold increase of baseline value (MMP-1 mRNA; 10^−7 M, after 24 hours): 0.68 relative units
- MMP-1 mRNA, fold increase of baseline value (MMP-1 mRNA; 10^−8 M, 0 hours): 1 relative units
- MMP-1 mRNA, fold increase of baseline value (MMP-1 mRNA; 10^−8 M, 2 hours): 1.13 relative units
- MMP-1 mRNA, fold increase of baseline value (MMP-1 mRNA; 10^−8 M, 6 hours): 0.81 relative units
- MMP-1 mRNA, fold increase of baseline value (MMP-1 mRNA; 10^−8 M, 12 hours): 1.12 relative units
- MMP-1 mRNA, fold increase of baseline value (MMP-1 mRNA; 10^−8 M, 24 hours): 0.87 relative units
- MMP-1 mRNA, fold increase of baseline value (MMP-1 mRNA; 10^−8 M, 48 hours): 0.83 relative units
- MMP-1 mRNA, fold increase of baseline value (MMP-1 mRNA; 10^−8 M, after 24 hours): 1.12 relative units
- MMP-1 mRNA, fold increase of baseline value (MMP-1 mRNA; 10^−9 M, after 24 hours): 1.05 relative units
